Experiment [1] relates to isovaleric acid. As to the kind of experiment: Malodor Reduction Test (cross-adaptation, Labeled Magnitude Scale). It counts as in vivo. Conditions: Homo sapiens, inhaled or nasal; 1% (v/v) test substance in diethylphthalate sniffed before 56 ppm aqueous isovaleric acid; perceived intensity on LMS. As for the experimental part:
a) Malodor Reduction Test
Each subject's sense of smell was tested using a smell identification test and an isovaleric acid threshold test. To pass the smell ID test the subject had to correctly identify the aromas of peach, spearmint, cinnamon, lime, pineapple and clove. To pass the isovaleric acid threshold test subjects had to detect the odor of isovaleric acid in a one part-per-million (1 ppm weight/volume) aqueous isovaleric acid solution. This is above the 0.12 ppm threshold for a person with a normal sense of smell and below the 5.0 ppm threshold for a person with a specific anosmia to isovaleric acid (Amoore 1977). The use of an odor ID and a threshold test to identify subjects with a normal sense of smell is standard practice, (Cain, Gent et al. 1983).
The target malodor, isovaleric acid, was presented to the subject in a 60 mL, wide mouth amber, screw cap jar. The concentration of isovaleric acid in water that gave an odor intensity of strong or higher on the Labeled Magnitude Scale was 56 parts-per-million (weight/volume). Five milliliters of a 1% (v/v) solution of the test substance in diethylphthalate (DEP) presented in a 20 ml glass vial were used to evaluate the blocker candidate. The labeled the Labeled Magnitude Scale (LMS, FIG. 1) was developed for the quantitative measurement of taste, irritation and odor intensities (Green, Shaffer et al. 1993; Green, Dalton et al. 1996).
Evaluation of a sample for malodor blocking was as follows: a) The subject sniffed the isovaleric acid (target) with both nostrils and scored its intensity using the Labeled Magnitude Scale (LMS), b) The subject waited one minute, c) the subject sniffed the candidate compound twice with the left and then twice with the right nostril, d) the subject sniffed the isovaleric acid target sample within 20 seconds with both nostrils and scored its odor using the LMS, and e) the subject waited for two minutes before proceeding to the next test substance.
The percent malodor reduction (% MOR) was calculated using the following formula:
% MOR=[1−(IVAInt after CA/IVAINT before CA)]×100 where: IVA isovaleric acid
The ratio in this equation goes from zero (complete blocking) to one (no blocking). The % malodor reduction moves in the opposite direction and goes from 100% for complete blocking to 0% for no blocking.
Tables 1, 2, and 3 present the percent malodor reduction for some low molecular weight acetals, alcohols and esters respectively. In each of these tables the standard error of the mean is the standard deviation of the mean divided by the square root of the number of subjects used for the evaluation.

The test system of experiment [2] is isovaleric acid. Briefly: Deodorant stick containing 1% malodor reduction compound, sniff test. It counts as in vivo, human. As to conditions: compound at 1% by weight of deodorant stick; stick sniffed twice before 56 ppm aqueous isovaleric acid. An excerpt:
A conventional deodorant stick composition, for example one with the following composition:
is modified by the addition of compound having a malodor reduction value of 80% or more as measured by the malodor reduction test presented in Example 1 in an amount such that it accounts for 1% by weight of the deodorant stick. […] Examples of effective compounds are: 2-Isobutyl-[1,3]dioxane, 2-Isobutyl-4,5-dimethyl-[1,3]dioxolane, 2-Isobutyl-4-methyl-[1,3]dioxane, 2-Isobutyl-4-methyl-[1,3]dioxolane, 1,1-Dimethoxy-3-methyl-butane, 2-lsobutyl-[1,3]dioxolane, 2-(2-Methyl-cyclopropyl)-[1,3]dioxolane, 2-Isobutyl-5-methyl-[1,3]dioxane, 2-Methylcyclopropane methanol, Ethyl isovalerate, Methyl isovalerate, 2-Methyl-cyclopropanecarboxylic acid methyl ester, n-Propyl isovalerate, and 2-Methyl-cyclopropanecarboxylic acid ethyl ester.

`CCOC(CC(C)C)OCC` [1,1-Diethoxy-3-methyl-butane, 1,1-Diethoxy-3-methyl-butane]: the inhibition in vivo – broadly, the drop in the measured response relative to a control, in per cent – at 1 % v/v in the experiment on isovaleric acid [1] was 78%.

As to `CCCOC(=O)CC(C)C` [n-Propyl isovalerate], in the experiment on isovaleric acid [2], the “block of the perception of isovaleric acid by deodorant stick” value (“block” below) is listed as “completely block”. The molecule further had an inhibition in vivo at 1 % v/v in the experiment with isovaleric acid [1] of 83%.

Turning to `CC(C)OC(=O)C1CC1C` (stereo not drawn) [2-Methyl-cyclopropanecarboxylic acid isopropyl ester], in the experiment with isovaleric acid [1], the inhibition in vivo at 1 % v/v was found to be 68%.

Consider `CC1CC1C1OCCO1` (stereo not drawn) [2-(2-Methyl-cyclopropyl)-[1,3]dioxolane, 2-(2-Methyl-cyclopropyl)-[1,3]dioxolane], for which, in the experiment on isovaleric acid [2], the “block” value is recorded as “completely block”. In addition, the inhibition in vivo at 1 % v/v with isovaleric acid [1] was determined as 85%.

In the case of `CC(C)CC1OCCCO1` [2-Isobutyl-[1,3]dioxane], the “block” value in the experiment on isovaleric acid [2] was “completely block”. Also, the inhibition in vivo at 1 % v/v in the experiment with isovaleric acid [1] is 97%.

Molecule `OCCC1CC1` [2-Cyclopropylethanol] returned an inhibition in vivo at 1 % v/v in the experiment with isovaleric acid [1] of 74%.

For the molecule `CC(C)CC1OC(C)C(C)O1` (stereo not drawn) [2-Isobutyl-4,5-dimethyl-[1,3]dioxolane, 2-Isobutyl-4,5-dimethyl-[1,3]dioxolane], the “block” value in the experiment with isovaleric acid [2] is given as “completely block”. Moreover, in the experiment on isovaleric acid [1], the inhibition in vivo at 1 % v/v is 89%.

Consider `CC(C)CC1OCCO1` [2-Isobutyl-[1,3]dioxolane], for which, in the experiment with isovaleric acid [2], the “block” value was “completely block”. The molecule also showed an inhibition in vivo at 1 % v/v in the experiment with isovaleric acid [1] of 87%.

For `CC(C)CC1OCC(C)CO1` (stereo not drawn) [2-Isobutyl-5-methyl-[1,3]dioxane, 2-Isobutyl-5-methyl-[1,3]dioxane], in the experiment with isovaleric acid [2], the “block” value is on record as “completely block”. Also, the inhibition in vivo at 1 % v/v in the experiment with isovaleric acid [1] came out at 80%.

Regarding `COC(=O)CC(C)C` [Methyl isovalerate], the “block” value with isovaleric acid [2] was “completely block”.

In the case of `CCOC(=O)C1CC1C` (stereo not drawn) [2-Methyl-cyclopropanecarboxylic acid ethyl ester], the “block” value in the experiment with isovaleric acid [2] was “completely block”. In addition, in the experiment with isovaleric acid [1], the inhibition in vivo at 1 % v/v was 81%.

Consider `CC(C)CC1OCCC(C)O1` (stereo not drawn) [2-Isobutyl-4-methyl-[1,3]dioxane, 2-Isobutyl-4-methyl-[1,3]dioxane], for which, in the experiment on isovaleric acid [2], the “block” value was “completely block”. The molecule also displayed an inhibition in vivo at 1 % v/v with isovaleric acid [1] of 92%.

For the molecule `COC(=O)C1CC1C` (stereo not drawn) [2-Methyl-cyclopropanecarboxylic acid methyl ester], the “block” value in the experiment with isovaleric acid [2] is “completely block”. For the same molecule, the inhibition in vivo at 1 % v/v with isovaleric acid [1] amounted to 89%.

For the molecule `CC(C)CC1OCC(C)O1` (stereo not drawn) [2-Isobutyl-4-methyl-[1,3]dioxolane, 2-Isobutyl-4-methyl-[1,3]dioxolane], the “block” value in the experiment with isovaleric acid [2] was “completely block”. For the same molecule, the inhibition in vivo at 1 % v/v in the experiment on isovaleric acid [1] was determined as 89%.

Take `CC(=O)OCCC(C)C` [Isoamylacetate]: in the experiment with isovaleric acid [1], the inhibition in vivo at 1 % v/v worked out at 67%.

The molecule `CC1(CCO)CC1` [2-(1-Methyl-cyclopropyl)-ethanol, 2-(1-Methyl-cyclopropyl)-ethanol] displayed an inhibition in vivo at 1 % v/v with isovaleric acid [1] of 72%.

`CC(C)CCO` [Isoamyl Alcohol] displayed an inhibition in vivo at 1 % v/v in the experiment with isovaleric acid [1] of 73%.

In the experiment on isovaleric acid [1], `CC1CC1CCO` (stereo not drawn) [2-(2-Methyl-cyclopropyl)-ethanol, 2-(2-Methyl-cyclopropyl)-ethanol] returned an inhibition in vivo at 1 % v/v of 77%.

Consider `CCOC(=O)CC(C)C` [Ethyl isovalerate], for which, in the experiment on isovaleric acid [2], the “block” value is listed as “completely block”. The inhibition in vivo at 1 % v/v in the experiment on isovaleric acid [1] was 94%.

For the molecule `CCC1COC(CC(C)C)O1` (stereo not drawn) [4-Ethyl-2-isobutyl-[1,3]dioxolane, 4-Ethyl-2-isobutyl-[1,3]dioxolane], the inhibition in vivo at 1 % v/v with isovaleric acid [1] turned out to be 78%.

For the molecule `CC1CC1CO` (stereo not drawn) [2-Methylcyclopropane methanol], the “block” value with isovaleric acid [2] was “completely block”. The molecule further had an inhibition in vivo at 1 % v/v in the experiment on isovaleric acid [1] of 85%.

For `COC(CC(C)C)OC` [1,1-Dimethoxy-3-methyl-butane, 1,1-Dimethoxy-3-methyl-butane], the “block” value with isovaleric acid [2] was “completely block”. This molecule also displayed an inhibition in vivo at 1 % v/v in the experiment on isovaleric acid [1] of 87%.

In turn, `CC(C)CC(=O)OC(C)C` [Isopropyl isovalerate] came in with an inhibition in vivo at 1 % v/v in the experiment on isovaleric acid [1] of 74%.

Source of the values: US20030089885A1, “Use of low molecular weight acetal, alcohol, acylated alcohol and ester compounds to block or reduce odor of carboxylic acids” (Senomyx, Inc., priority 2001, published 2003).
